One data set deals with Bacillus subtilis. Nature of the data set: Antimicrobial activity against Bacillus subtilis (agar plate-cylinder). It is filed as cell-based. As to conditions: standard bleomycin A2 (copper-free) assumed 1,000 mcg potency/mg. On the procedure:
(§1) 2. ANT[…] MYC[…] ATCC 607 AND BACILLUS SUBTILIS
(§2) The antimicrobial activity was tested against the captioned test organisms by the method of agar plate-cylinder. The activity was recorded on the assumption that the activity of standard sample of bleomycin A2 (copper-free form) is 1,000 mcg poteney/mg.

The test system of a further data set is pulmonary fibrosis. Nature of the data set: Pulmonary toxicity (pulmonary fibrosis) in mice. The conditions noted are these: for Incidence: Number of mice with pulmonary fibrosis (%) / Incidence: Number of mice with pulmonary fibrosis / Grade: Total score of pulmonary fibrosis/total number of samples / Grade: Total score of pulmonary fibrosis/total number of samples (%): ICR mice, 5 mg/kg i.p. once a day for 10 days; for Incidence: Number of mice with pulmonary fibrosis (%) / Incidence: Number of mice with pulmonary fibrosis: 5 weeks observation; for Incidence: Number of mice with pulmonary fibrosis: mice with fibrosis/total; for Grade: Total score of pulmonary fibrosis/total number of samples / Grade: Total score of pulmonary fibrosis/total number of samples (%): points 0, 1, 2, 4, 6; for Ratio (by comparison with "Bleomycin Complex"): versus Bleomycin Complex.

The subject of data set [1] is Mycobacterium smegmatis ATCC 607. Nature of the data set: Antimicrobial activity against Mycobacterium smegmatis ATCC 607 (agar plate-cylinder). The class given is cell-based. As to conditions: standard bleomycin A2 (copper-free) assumed 1,000 mcg potency/mg. On the procedure:
as §1, §2

Turning to `CCCCNCCCN(C)CCCNC(=O)c1csc(-c2csc(CCNC(=O)C(NC(=O)C(C)C(O)C(C)NC(=O)C(NC(=O)c3nc(C(CC(N)=O)NCC(N)C(=O)NC(C)C)nc(N)c3C)C(OC3OC(CO)C(O)C(O)C3OC3OC(CO)C(O)C(OC(N)=O)C3O)c3cnc[nH]3)C(C)O)n2)n1` (stereo not drawn) [Compound 37, 3-[N--methyl-N--(3-n-butylaminopropyl)amino]propylamino-(amido)N--[isopropyl]-BLM], the “Antimicrobial potency of Cu-free compound against Bacillus subtilis” value in the data set on Bacillus subtilis is listed as 20048 mcg potency/mg. In the data set on pulmonary fibrosis, the “Incidence: Number of mice with pulmonary fibrosis (%)” value (“Incidence: Number of mice … (%)” below) is 33%, the “Incidence: Number of mice with pulmonary fibrosis” value is on record as 3/9, the “Grade: Total score of pulmonary fibrosis/total number of samples” value is 13/27 and the “Grade: Total score of pulmonary fibrosis/total number of samples (%)” value is 48%. For the same molecule, the “Ratio (by comparison with "Bleomycin Complex")” value (“Ratio” for short) with pulmonary fibrosis turned out to be 0.46. Further, the “Antimicrobial potency of Cu-free compound against Mycobacterium smegmatis ATCC 607” value in data set [1] turned out to be 13210 mcg potency/mg.

Take `Cc1c(N)nc(C(CC(N)=O)NCC(N)C(=O)NCCCNC(C)c2ccccc2)nc1C(=O)NC(C(=O)NC(C)C(O)C(C)C(=O)NC(C(=O)NCCc1nc(-c2nc(C(=O)NCCC[N+](C)(CCCN(Cc3ccccc3)Cc3ccccc3)Cc3ccccc3)cs2)cs1)C(C)O)C(OC1OC(CO)C(O)C(O)C1OC1OC(CO)C(O)C(OC(N)=O)C1O)c1cnc[nH]1` [Compound 47, 3-{N--methyl-N--benzyl-N--[3-(dibenzylamino)propylamino}-propylamino-(amido)N--[3-((S)-1'-phenylethyl)aminopropyl]-BLM]: the “Antimicrobial potency of Cu-free compound against Bacillus subtilis” value with Bacillus subtilis turned out to be 180 mcg potency/mg. Further, in the data set on pulmonary fibrosis, the “Incidence: Number of mice … (%)” value is reported as 0%, the “Incidence: Number of mice with pulmonary fibrosis” value was 0/8, the “Grade: Total score of pulmonary fibrosis/total number of samples” value is recorded as 0/24 and the “Grade: Total score of pulmonary fibrosis/total number of samples (%)” value amounted to 0%. Besides, the “Ratio” value in the data set on pulmonary fibrosis came to 0. Also, the “Antimicrobial potency of Cu-free compound against Mycobacterium smegmatis ATCC 607” value in data set [1] came out at 5900 mcg potency/mg.

For `CCCCCCCCNC(=O)C(N)CNC(CC(N)=O)c1nc(N)c(C)c(C(=O)NC(C(=O)NC(C)C(O)C(C)C(=O)NC(C(=O)NCCc2nc(-c3nc(C(=O)NCCCN(C)CCCNCC4CCCCCCC4)cs3)cs2)C(C)O)C(OC2OC(CO)C(O)C(O)C2OC2OC(CO)C(O)C(OC(N)=O)C2O)c2cnc[nH]2)n1` (stereo not drawn) [Compound 59, 3-{N--methyl-N--[3-(cyclooctylmethylamino)propyl]amino}propyl-amino-(amido)N--[octyl]-BLM], the “Antimicrobial potency of Cu-free compound against Bacillus subtilis” value in the data set on Bacillus subtilis came to 5473 mcg potency/mg. Besides, in the data set on pulmonary fibrosis, the “Incidence: Number of mice … (%)” value is recorded as 0%, the “Incidence: Number of mice with pulmonary fibrosis” value is recorded as 0/9, the “Grade: Total score of pulmonary fibrosis/total number of samples” value is reported as 0/27 and the “Grade: Total score of pulmonary fibrosis/total number of samples (%)” value is listed as 0%. The “Ratio” value in the data set with pulmonary fibrosis came out at 0. In addition, the “Antimicrobial potency of Cu-free compound against Mycobacterium smegmatis ATCC 607” value in data set [1] was found to be 65733 mcg potency/mg.

Regarding `Cc1c(N)nc(C(CC(N)=O)NCC(N)C(=O)NCCCN(C)CCCNCCc2ccc(Cl)cc2)nc1C(=O)NC(C(=O)NC(C)C(O)C(C)C(=O)NC(C(=O)NCCc1nc(-c2nc(C(=O)NCCCN(C)CCCNCCc3ccc(Cl)cc3)cs2)cs1)C(C)O)C(OC1OC(CO)C(O)C(O)C1OC1OC(CO)C(O)C(OC(N)=O)C1O)c1cnc[nH]1` (stereo not drawn) [Compound 45, 3-{N--methyl-N--[3-(2-(p-chlorophenyl)ethyl)aminopropyl]amino}-propylamino(amido)N--{3-[N-- methyl-N--[3-(2-(p-chlorophenyl)-ethyl)aminopropyl]amino]propyl}-BLM], the “Antimicrobial potency of Cu-free compound against Bacillus subtilis” value in the data set on Bacillus subtilis was 270 mcg potency/mg. Also, in the data set with pulmonary fibrosis, the “Incidence: Number of mice … (%)” value was 0%, the “Incidence: Number of mice with pulmonary fibrosis” value is listed as 0/9, the “Grade: Total score of pulmonary fibrosis/total number of samples” value is recorded as 0/27 and the “Grade: Total score of pulmonary fibrosis/total number of samples (%)” value was determined as 0%. Further, in the data set on pulmonary fibrosis, the “Ratio” value is on record as 0. Besides, the “Antimicrobial potency of Cu-free compound against Mycobacterium smegmatis ATCC 607” value in data set [1] was found to be 650 mcg potency/mg.

In the case of `CCCCN(CCCC)CCCNC(=O)C(N)CNC(CC(N)=O)c1nc(N)c(C)c(C(=O)NC(C(=O)NC(C)C(O)C(C)C(=O)NC(C(=O)NCCc2nc(-c3nc(C(=O)NCCC[N+](C)(C)CCCN(Cc4ccccc4)Cc4ccccc4)cs3)cs2)C(C)O)C(OC2OC(CO)C(O)C(O)C2OC2OC(CO)C(O)C(OC(N)=O)C2O)c2cnc[nH]2)n1` (stereo not drawn) [Compound 54], the “Antimicrobial potency of Cu-free compound against Bacillus subtilis” value with Bacillus subtilis stood at 2663 mcg potency/mg. Also, in the data set on pulmonary fibrosis, the “Incidence: Number of mice … (%)” value came to 0%, the “Incidence: Number of mice with pulmonary fibrosis” value is 0/9, the “Grade: Total score of pulmonary fibrosis/total number of samples” value is reported as 0/27 and the “Grade: Total score of pulmonary fibrosis/total number of samples (%)” value turned out to be 0%. Besides, the “Ratio” value in the data set on pulmonary fibrosis came to 0. In data set [1], the “Antimicrobial potency of Cu-free compound against Mycobacterium smegmatis ATCC 607” value turned out to be 32633 mcg potency/mg.

Regarding `Cc1c(N)nc(C(CC(N)=O)NCC(N)C(=O)NCCC[N+](C)(CCCN(Cc2ccccc2)Cc2ccccc2)Cc2ccccc2)nc1C(=O)NC(C(=O)NC(C)C(O)C(C)C(=O)NC(C(=O)NCCc1nc(-c2nc(C(=O)NCCC[N+](C)(CCCN(Cc3ccccc3)Cc3ccccc3)Cc3ccccc3)cs2)cs1)C(C)O)C(OC1OC(CO)C(O)C(O)C1OC1OC(CO)C(O)C(OC(N)=O)C1O)c1cnc[nH]1` (stereo not drawn) [Compound 49, 3-{N--methyl-N--benzyl-N--[3-(dibenzylamino)propylamino}-propylamino-(amido)N--{3-{N--methyl-N--benzyl-N--[3-dibenzyl-amino)propyl]amino}propyl}-BLM], the “Antimicrobial potency of Cu-free compound against Bacillus subtilis” value in the data set on Bacillus subtilis was 1 mcg potency/mg. Moreover, in the data set on pulmonary fibrosis, the “Incidence: Number of mice … (%)” value was 0%, the “Incidence: Number of mice with pulmonary fibrosis” value is 0/3, the “Grade: Total score of pulmonary fibrosis/total number of samples” value was 0/9 and the “Grade: Total score of pulmonary fibrosis/total number of samples (%)” value was found to be 0%. Moreover, in the data set on pulmonary fibrosis, the “Ratio” value is reported as 0. The “Antimicrobial potency of Cu-free compound against Mycobacterium smegmatis ATCC 607” value in data set [1] was 230 mcg potency/mg.

For the molecule `Cc1c(N)nc(C(CC(N)=O)NCC(N)C(=O)NCCCNC(C)c2ccccc2)nc1C(=O)NC(C(=O)NC(C)C(O)C(C)C(=O)NC(C(=O)NCCc1nc(-c2nc(C(=O)NCCCN(C)CCCNCCc3ccc(Cl)cc3)cs2)cs1)C(C)O)C(OC1OC(CO)C(O)C(O)C1OC1OC(CO)C(O)C(OC(N)=O)C1O)c1cnc[nH]1` [Compound 43, 3-{N--methyl-N--[3-(2-(p-chlorophenyl)ethyl)aminopropyl]amino}-propylamino-(amido)N--[3-((S)-1'-phenylethyl)aminopropyl]-BLM], the “Antimicrobial potency of Cu-free compound against Bacillus subtilis” value with Bacillus subtilis amounted to 4267 mcg potency/mg. In addition, in the data set on pulmonary fibrosis, the “Incidence: Number of mice … (%)” value was found to be 0%, the “Incidence: Number of mice with pulmonary fibrosis” value was 0/1, the “Grade: Total score of pulmonary fibrosis/total number of samples” value is recorded as 0/3 and the “Grade: Total score of pulmonary fibrosis/total number of samples (%)” value came to 0%. Moreover, the “Ratio” value with pulmonary fibrosis was found to be 0. Also, the “Antimicrobial potency of Cu-free compound against Mycobacterium smegmatis ATCC 607” value in data set [1] came to 15593 mcg potency/mg.

Take `CCCCNCCCN(C)CCCNC(=O)c1csc(-c2csc(CCNC(=O)C(NC(=O)C(C)C(O)C(C)NC(=O)C(NC(=O)c3nc(C(CC(N)=O)NCC(N)C(=O)NCCCN(C)CCCNCCCC)nc(N)c3C)C(OC3OC(CO)C(O)C(O)C3OC3OC(CO)C(O)C(OC(N)=O)C3O)c3cnc[nH]3)C(C)O)n2)n1` (stereo not drawn) [Compound 38, 3-[N--methyl-N--(3-n-butylaminopropyl)amino]propylamino-(amido)N--{3-[N--methyl-N--(3-n-butylaminopropyl)amino]-propyl}-BLM]: in the data set with Bacillus subtilis, the “Antimicrobial potency of Cu-free compound against Bacillus subtilis” value is reported as 6600 mcg potency/mg. Besides, in the data set on pulmonary fibrosis, the “Incidence: Number of mice … (%)” value came out at 71%, the “Incidence: Number of mice with pulmonary fibrosis” value was 5/7, the “Grade: Total score of pulmonary fibrosis/total number of samples” value is given as 7/21 and the “Grade: Total score of pulmonary fibrosis/total number of samples (%)” value stood at 33%. The “Ratio” value with pulmonary fibrosis worked out at 0.32. Further, the “Antimicrobial potency of Cu-free compound against Mycobacterium smegmatis ATCC 607” value in data set [1] is recorded as 5100 mcg potency/mg.

Regarding `CCCCN(CCCC)CCCNC(=O)C(N)CNC(CC(N)=O)c1nc(N)c(C)c(C(=O)NC(C(=O)NC(C)C(O)C(C)C(=O)NC(C(=O)NCCc2nc(-c3nc(C(=O)NCCCN(C)CCCNCC4CCCCCCC4)cs3)cs2)C(C)O)C(OC2OC(CO)C(O)C(O)C2OC2OC(CO)C(O)C(OC(N)=O)C2O)c2cnc[nH]2)n1` (stereo not drawn) [Compound 58, 3-[N--methyl-N--[3-(cyclooctylmethylamino)propyl]amino}-propylamino-(amido)N--[3-(di-n-butyamino)propyl]-BLM], the “Antimicrobial potency of Cu-free compound against Bacillus subtilis” value in the data set on Bacillus subtilis turned out to be 5518 mcg potency/mg. In the data set with pulmonary fibrosis, the “Incidence: Number of mice … (%)” value is listed as 0%, the “Incidence: Number of mice with pulmonary fibrosis” value is 0/9, the “Grade: Total score of pulmonary fibrosis/total number of samples” value is on record as 0/27 and the “Grade: Total score of pulmonary fibrosis/total number of samples (%)” value is reported as 0%. In the data set on pulmonary fibrosis, the “Ratio” value came to 0. Further, the “Antimicrobial potency of Cu-free compound against Mycobacterium smegmatis ATCC 607” value in data set [1] is given as 62418 mcg potency/mg.

The values above are taken from patent US4472304A, “(Amido)N-substituted bleomycins, salts thereof and process for preparation thereof” (Nippon Kayaku Kabushiki Kaisha, priority 1981, dated 1984).
